We go through six molecules from paper PMC5642477, “Phosphodiesterase 10A is overexpressed in lung tumor cells and inhibitors selectively suppress growth by blocking β-catenin and MAPK signaling” (Oncotarget, 2017).

In assay [1] the test system is cleaved PARP and caspase 3 in H1299 cells. Put plainly: Western blotting, cleaved PARP and caspase 3 (apoptosis). Format: cell-based, human. As to conditions: H1299, 24 hours of treatment. The method, then: (§1) Whole cell extraction was performed according to a previously described method using cell lysing buffer (Cell Signaling) supplemented with 10 mmol/L NaF for protein phosphorylation studies. Cell lysates were separated by 4-12% gradient, 7% or 10% pre-casting PAGE (Novex/Invitrogen) followed by electrophoretic transfer to a nitrocellulose membrane. Western blotting procedures were performed using Chemiluminescence Reagent (Pierce) and visualized using Chemi Doc Imaging System (BioRad).

A further assay concerns β-catenin in H1299 cells. Put plainly: Western blotting, β-catenin phosphorylation. Format: cell-based, human. The following applies: H1299, PQ10 2 µmol/L, 1 hour; KT5823 0.1 µmol/L, H89 1 µmol/L. On the procedure: as §1
The test system of assay [2] is intracellular cGMP levels in H1299 cells. Kind of assay: cGMP biosensor assay (luciferase). As to conditions: H1299, CNP 100 nmol/L; sildenafil 1 µmol/L, IBMX 100 µmol/L. Format: cell-based, human. On the procedure: Stable cell lines with an expression of luciferase-based cGMP biosensor were established from H1299 NSCLC cells and HEK293 cells using a genetically encoded GAF-Luc construct (Promega), containing a cGMP-specific binding domain from human PDE5A GAF-A domain fused to modified firefly luciferase (35). Cells were pre-incubated at room temperature in CO2 independent media supplemented with 10% FBS and 5 mmol/L luciferin. For the measurement of intracellular cGMP levels, sodium nitroprusside (SNP) or C-type natriuretic peptide (CNP) in combination with PDE inhibitors were added to initiate the experiment and the increased luminescence values in live cells were detected constantly over a period time of 2 hours.

The test system of another assay is H460 cells. Put plainly: Growth assay (Cell Titer Glo). Format: cell-based. As to conditions: Homo sapiens, NCI-H460; H460, 72 hours, 5% serum; read-out: Growth inhibition IC50. On the procedure:
(§2) Cells were plated in half area 96-well microtiter plates (Corning) at a density of 3, 000 cells per well. For drug treatment, cells were treated with compound or DMSO as vehicle (final concentration at 0.2%). For siRNA assays, cells were transfected with siRNAs under the same condition as described above. The effect of treatment on cell growth was measured using the Cell Titer Glo (CTG) assay (Promega) as specified by the measurement of viable cells based on ATP content after 72 hours standard culture. All growth assay involving NSCLCs and NHAECs were performed in the presence of 5% serum.
(§3) Drug effects on cell growth and IC50 values were determined as described previously. All experiments were repeated a minimum of three times to determine the reproducibility of the results. All error bars represent standard error of the mean (SEM). Statistical analysis was performed using Student’s t test or other as indicated. A P value of <0.05 was considered statistically significant.

A further assay has as its system A549 cells. Put plainly: Growth assay (Cell Titer Glo). Format: cell-based. As to conditions: Homo sapiens; A549, 72 hours, 5% serum; read-out: Growth inhibition IC50. On the procedure:
as §2, §3

The subject of a further assay is EKVX cells. Kind of assay: Growth assay (Cell Titer Glo). Format: cell-based. The following applies: Homo sapiens, 72 hours, read-out: Growth inhibition IC50. On the procedure: as §2, §3
The next assay relates to H226 cells. Put plainly: Growth assay (Cell Titer Glo). Format: cell-based. The following applies: Homo sapiens, NCI-H226; H226, 72 hours; read-out: Growth inhibition IC50. On the procedure: as §2, §3
The test system of another assay is HOP-92 cells. Kind of assay: Growth assay (Cell Titer Glo). Format: cell-based. The following applies: Homo sapiens; HOP-92, 72 hours; read-out: Growth inhibition IC50. On the procedure: as §2, §3
For another assay, the system named is H322M cells. Kind of assay: Growth assay (Cell Titer Glo). As to conditions: Homo sapiens, NCI-H322M, 72 hours, read-out: Growth inhibition IC50. Format: cell-based. The method, then:
as §2, §3

In the next assay the test system is H23 cells. Put plainly: Growth assay (Cell Titer Glo). As to conditions: Homo sapiens, NCI-H23; H23, 72 hours; read-out: Growth inhibition IC50. Format: cell-based. The method, then: as §2, §3
The next assay concerns H522 cells. Kind of assay: Growth assay (Cell Titer Glo). Format: cell-based. As to conditions: Homo sapiens, NCI-H522; H522, 72 hours; read-out: Growth inhibition IC50. On the procedure: as §2, §3
Another assay deals with HOP62 cells. Put plainly: Growth assay (Cell Titer Glo). Format: cell-based, human. As to conditions: Homo sapiens, HOP-62; HOP62, 72 hours, 5% serum; read-out: Growth inhibition IC50. On the procedure:
as §2, §3

The subject of the next assay is H1299 cells. Kind of assay: Growth assay (Cell Titer Glo). Format: cell-based, human. As to conditions: not shown. The method, then:
as §2, §3

For the molecule `O=S(=O)(NCCNC/C=C/c1ccc(Br)cc1)c1cccc2cnccc12` [H89], the “effect on PQ10-induced activation of PARP and caspase 3” value in assay [1] is reported as “ineffective”. In addition, in the assay on β-catenin in H1299 cells, the “effect on PQ10-induced phosphorylation of β-catenin at pSer552” value was “partial inhibition”.

In the case of `CC(C)Cn1c(=O)n(C)c(=O)c2[nH]cnc21` [IBMX], in assay [2], the “effect on luminescence values in biosensor assay” value was “increased luminescence levels”.

Consider `COC(=O)[C@@]1(OC)C[C@H]2O[C@]1(C)n1c3ccccc3c3c4c(c5c6ccccc6n2c5c31)C(=O)N(C)C4` [KT5823], for which, in assay [1], the “effect on PQ10-induced activation of PARP and caspase 3” value was “attenuated”. Besides, the “effect on PQ10-induced phosphorylation of β-catenin at pSer552” value in the assay on β-catenin in H1299 cells is listed as “partial inhibition”.

In the case of `COc1ccc(Cc2nccc3cc(OC)c(OC)cc23)cc1OC` [Papaverine], the values for the half-maximal inhibitory concentration (IC50) in the assay on H460 cells and in the assay with A549 cells were 16.3 µM and 17.2 µM, respectively.

Regarding `Cn1cc(-c2ccncc2)c(-c2ccc(OCc3ccc4ccccc4n3)cc2)n1` [Pf-2545920], the half-maximal inhibitory concentration (IC50) in the assay on EKVX cells was 18.6 µM; with H226 cells, 21.1 µM; with HOP-92 cells, 21.4 µM; with H460 cells it was 15.2 µM; in the assay with A549 cells, 15.8 µM; with H322M cells, 20 µM. Also, the concentration for half-maximal inhibition (IC50) in the assay on H23 cells turned out to be 18.1 µM; with H522 cells, 25.8 µM; in the assay with HOP62 cells, 22.9 µM.

For `CCCc1nn(C)c2c(=O)[nH]c(-c3cc(S(=O)(=O)N4CCN(C)CC4)ccc3OCC)nc12` [Sildenafil, sildenafil], the “effect on growth of H1299 cells” value in the assay on H1299 cells is given as “no effect”. For the same molecule, the “effect on luminescence values in biosensor assay” value in [2] is reported as “did not affect luminescence values”.
